Data reported in patent US12435059B2, “AMP-activated protein kinase inhibitors and methods of making and using the same” (The Regents of the University of Colorado, priority 2019, dated 2025).
Like-named read-outs stand apart in the source and are kept apart here.

What was measured:
Assay in all cases: biochemical
Assay type in all cases: binding
468 kinases [1] = biological target: 468 kinases (Homo sapiens, UniProt O14920); details: IKK-beta; read-out: % Inhibition @ 100 nM
468 kinases [2] = biological target: 468 kinases (Homo sapiens, UniProt O43318); details: TAK1; read-out: % Inhibition @ 100 nM
468 kinases [3] = biological target: 468 kinases (Homo sapiens, UniProt O60674); details: JAK2( JH1domain-catalytic); read-out: % Inhibition @ 100 nM
468 kinases [4] = biological target: 468 kinases (Homo sapiens, UniProt P00519, H396P); details: read-out: % Inhibition @ 100 nM
468 kinases [5] = biological target: 468 kinases (Homo sapiens, UniProt P00519, M351T); details: ABL1 (M351T)-phosphorylated; read-out: % Inhibition @ 100 nM
468 kinases [6] = biological target: 468 kinases (Homo sapiens, UniProt P04629); details: TRKA; read-out: % Inhibition @ 100 nM
468 kinases [7] = biological target: 468 kinases (Homo sapiens, UniProt P22607, G697C); details: FGFR3(G697C); read-out: % Inhibition @ 100 nM
468 kinases [8] = biological target: 468 kinases (Homo sapiens, UniProt P22694); details: PKAC-beta; read-out: % Inhibition @ 100 nM
468 kinases [9] = biological target: 468 kinases (Homo sapiens, UniProt P27361); details: ERK1; read-out: % Inhibition @ 100 nM
468 kinases [10] = biological target: 468 kinases (Homo sapiens, UniProt P36888, D835V); details: FLT3(D835V); read-out: % Inhibition @ 100 nM
468 kinases [11] = biological target: 468 kinases (Homo sapiens, UniProt P41743); details: PRKCI; read-out: % Inhibition @ 100 nM
468 kinases [12] = biological target: 468 kinases (Homo sapiens, UniProt P49761); details: CLK3; read-out: % Inhibition @ 100 nM
468 kinases [13] = biological target: 468 kinases (Homo sapiens, UniProt P49841); details: GSK3B; read-out: % Inhibition @ 100 nM
468 kinases [14] = biological target: 468 kinases (Homo sapiens, UniProt P52564); details: MEK6; read-out: % Inhibition @ 100 nM
468 kinases [15] = biological target: 468 kinases (Homo sapiens, UniProt P54756); details: EPHA5; read-out: % Inhibition @ 100 nM
468 kinases [16] = biological target: 468 kinases (Homo sapiens, UniProt Q00536); details: PCTK1; read-out: % Inhibition @ 100 nM
468 kinases [17] = biological target: 468 kinases (Homo sapiens, UniProt Q00537); details: PCTK2; read-out: % Inhibition @ 100 nM
468 kinases [18] = biological target: 468 kinases (Homo sapiens, UniProt Q02779); details: MLK2; read-out: % Inhibition @ 100 nM
468 kinases [19] = biological target: 468 kinases (Homo sapiens, UniProt Q13705); details: ACVR2B; read-out: % Inhibition @ 100 nM
468 kinases [20] = biological target: 468 kinases (Homo sapiens, UniProt Q14004); details: read-out: % Inhibition @ 100 nM, CDC2L5
468 kinases [21] = biological target: 468 kinases (Homo sapiens, UniProt Q16288); details: TRKC; read-out: % Inhibition @ 100 nM
468 kinases [22] = biological target: 468 kinases (Homo sapiens, UniProt Q16513); details: PKN2; read-out: % Inhibition @ 100 nM
468 kinases [23] = biological target: 468 kinases (Homo sapiens, UniProt Q16584); details: MLK3; read-out: % Inhibition @ 100 nM
468 kinases [24] = biological target: 468 kinases (Homo sapiens, UniProt Q2M2I8); details: AAK1; read-out: % Inhibition @ 100 nM
468 kinases [25] = biological target: 468 kinases (Homo sapiens, UniProt Q8WXR4); details: MYO3B; read-out: % Inhibition @ 100 nM
468 kinases [26] = biological target: 468 kinases (Homo sapiens, UniProt Q96D53); details: ADCK4; read-out: % Inhibition @ 100 nM
468 kinases [27] = biological target: 468 kinases (Homo sapiens, UniProt Q9BYT3); details: STK33; read-out: % Inhibition @ 100 nM
468 kinases [28] = biological target: 468 kinases (Homo sapiens, UniProt Q9H3Y6); details: SRMS; read-out: % Inhibition @ 100 nM
468 kinases [29] = biological target: 468 kinases (Homo sapiens, UniProt Q9NQU5); details: PAK6; read-out: % Inhibition @ 100 nM
468 kinases [30] = biological target: 468 kinases (Homo sapiens, UniProt Q9NRH2); details: SNRK; read-out: % Inhibition @ 100 nM
468 kinases [31] = biological target: 468 kinases (Homo sapiens, UniProt Q9NY57); details: YANK2; read-out: % Inhibition @ 100 nM
468 kinases [32] = biological target: 468 kinases (Homo sapiens, UniProt Q9UF33); details: EPHA6; read-out: % Inhibition @ 100 nM
468 kinases [33] = biological target: 468 kinases (Homo sapiens, UniProt Q9UPE1); details: SRPK3; read-out: % Inhibition @ 100 nM

SMILES	inhibition at 0.1 µM (468 kinases [1]) [%]	inhibition at 0.1 µM (468 kinases [2]) [%]	inhibition at 0.1 µM (468 kinases [3]) [%]	inhibition at 0.1 µM (468 kinases [4]; ABL1 (H396P)-nonphosphorylated) [%]	inhibition at 0.1 µM (468 kinases [5]) [%]	inhibition at 0.1 µM (468 kinases [6]) [%]	inhibition at 0.1 µM (468 kinases [7]) [%]	inhibition at 0.1 µM (468 kinases [8]) [%]	inhibition at 0.1 µM (468 kinases [9]) [%]	inhibition at 0.1 µM (468 kinases [10]) [%]	inhibition at 0.1 µM (468 kinases [11]) [%]	inhibition at 0.1 µM (468 kinases [12]) [%]	inhibition at 0.1 µM (468 kinases [13]) [%]	inhibition at 0.1 µM (468 kinases [14]) [%]	inhibition at 0.1 µM (468 kinases [15]) [%]	inhibition at 0.1 µM (468 kinases [16]) [%]	inhibition at 0.1 µM (468 kinases [17]) [%]	inhibition at 0.1 µM (468 kinases [18]) [%]	inhibition at 0.1 µM (468 kinases [19]) [%]	inhibition at 0.1 µM (468 kinases [20]) [%]	other results
CCN(CC)CCNC(=O)c1c(C)[nH]c(/C=C2\C(=O)Nc3ccc(CCO)cc32)c1C [Compound No. 10, (Z)—N-(2-(Diethylamino)ethyl)-5-((5-(2-hydroxyethyl)-2-oxoindolin-3-ylidene)methyl)-2,4-dimethyl-1H-pyrrole-3-carboxamide]	8	59	72	57	24	95.5	52	0	0	100	12	5	0	11	0	0	0	18	1	27	inhibition at 0.1 µM (468 kinases [4]; ABL1 (H396P)-phosphorylated): 6%; inhibition at 0.1 µM (468 kinases [21]): 60%; inhibition at 0.1 µM (468 kinases [22]): 24%; inhibition at 0.1 µM (468 kinases [23]): 20%; inhibition at 0.1 µM (468 kinases [24]): 88%; inhibition at 0.1 µM (468 kinases [25]): 0%; inhibition at 0.1 µM (468 kinases [26]): 0%; inhibition at 0.1 µM (468 kinases [27]): 70%; inhibition at 0.1 µM (468 kinases [28]): 13%; inhibition at 0.1 µM (468 kinases [29]): 0%; inhibition at 0.1 µM (468 kinases [30]): 12%; inhibition at 0.1 µM (468 kinases [31]): 1%; inhibition at 0.1 µM (468 kinases [32]): 0%; inhibition at 0.1 µM (468 kinases [33]): 88%
CCN(CC)CCNC(=O)c1c(C)[nH]c(/C=C2\C(=O)Nc3ccc(CCC(N)=O)cc32)c1C [Compound No. 16, (Z)-5-((5-(3-Amino-3-oxopropyl)-2-oxoindolin-3-ylidene)methyl)-N-(2-(diethylamino)ethyl)-2,4-dimethyl-1H-pyrrole-3-carboxamide]	19	61	76	66	22	97.4	12	13	13	100	37	10	36	25	9	19	17	7	12	50	inhibition at 0.1 µM (468 kinases [21]): 63%; inhibition at 0.1 µM (468 kinases [22]): 18%; inhibition at 0.1 µM (468 kinases [23]): 0%; inhibition at 0.1 µM (468 kinases [24]): 89%; inhibition at 0.1 µM (468 kinases [25]): 0%; inhibition at 0.1 µM (468 kinases [26]): 0%; inhibition at 0.1 µM (468 kinases [27]): 78%; inhibition at 0.1 µM (468 kinases [28]): 27%; inhibition at 0.1 µM (468 kinases [29]): 0%; inhibition at 0.1 µM (468 kinases [30]): 10%; inhibition at 0.1 µM (468 kinases [31]): 0%; inhibition at 0.1 µM (468 kinases [32]): 0%; inhibition at 0.1 µM (468 kinases [33]): 77%
